Experiments:
[1] = Trapping of / reaction with oxidized dicarboxidine in solution
[2] = Suitability of benzidines as hydrogen donor in the peroxidase cleavage reaction
HRP [3] = molecular target: T1, HRP (Armoracia rusticana, UniProt P00433); experiment: Release of fluorophore, pH jump method (HRP/H2O2 cleavage at pH 5.0, fluorescence read at pH 8.0); type: biochemical, horseradish; conditions: pH jump: reaction in citrate buffer pH 5.0 with H2O2 and 0.1 mL HRP (10 ng/mL); aliquot read in phosphate buffer pH 8.0; experiment repeated (two lines)
T1 sequence (P00433 31-338 limits assumed): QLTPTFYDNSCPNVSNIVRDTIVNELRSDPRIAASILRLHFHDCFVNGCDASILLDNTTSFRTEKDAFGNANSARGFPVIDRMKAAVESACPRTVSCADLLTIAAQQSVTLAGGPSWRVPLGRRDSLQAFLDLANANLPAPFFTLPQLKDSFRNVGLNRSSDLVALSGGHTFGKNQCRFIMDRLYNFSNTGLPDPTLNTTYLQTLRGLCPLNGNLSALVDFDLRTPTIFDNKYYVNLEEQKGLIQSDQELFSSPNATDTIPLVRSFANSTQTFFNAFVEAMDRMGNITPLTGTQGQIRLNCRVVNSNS
Experimental: 0.01 mL of dicarboxidine 11 (or XV), 0.1 mL of 49 and 0.04 mL of H2 O2 were added to 0.75 mL (0.76 mL) citrate buffer (pH 5.0, 0.1M); 0.1 mL of HRP (10 ng/mL) was added to start the reaction. 0.05 mL of this solution was taken every three minutes and added to 0.95 mL of phosphate buffer (pH 8.0, 1.0M) and spectra recorded. This experiment was repeated.
Results: Fluorescence after 3 minutes--background fluorescence.

HRP [4] = molecular target: T1, HRP; experiment: Release of fluorophore at pH 7.0 (HRP/H2O2); type: biochemical, horseradish; conditions: phosphate buffer 0.1M pH 7.0, H2O2, 0.1 mL HRP (100 ng/mL); experiment repeated (two lines)
Experimental: 0.01 mL of dicarboxidine 11 (or XV), 0.1 mL of 49 and 0.04 mL of H2 O2 were added to 0.75 mL (0.76 mL) of phosphate buffer (0.1M, pH 7.0). 0.1 mL of HRP (100 ng/mL) was added to start the reaction and the spectra recorded. This experiment was repeated.

| Compound | Effect on / reaction with oxidized dicarboxidine [1] | Function as benzidine hydrogen donor [2] | further results |
| --- | --- | --- | --- |
| COc1ccc(O)c(C(=O)O)c1 [2-hydroxy-5-methoxy benzoic acid] | has no effect on oxidized dicarboxidine |  |  |
| COc1ccc(O)cc1C(=O)O [2-methoxy-5-hydroxybenzoic acid] | react with oxidized dicarboxidine |  |  |
| Cc1cc(-c2cc(C)c(N)c(C)c2)cc(C)c1N [3,3',5,5'-tetramethylbenzidine] |  | do not react at a rate acceptable for assays |  |
| Cc1cc(-c2ccc(N)c(C)c2)ccc1N [3,3'-dimethylbenzidine] |  | function in the present invention |  |
| O=C(NCCS(=O)(=O)O)c1cc2ccc(Oc3ccc(O)cc3)cc2oc1=O [Compound 49] |  |  | Fluorescence after 3 minutes--background fluorescence (HRP [3]): 0.50 F.U.; Fluorescence (HRP [4]): 40 F.U. |
| O=C(O)c1cc(O)ccc1O [Gentisic acid, gentisic acid] | react with oxidized dicarboxidine |  |  |
| CN(C)c1ccc(-c2ccc(N(C)C)cc2)cc1 [N,N,N',N'-tetramethylbenzidine] |  | do not react at a rate acceptable for assays |  |
| COc1ccc(OC)cc1 [Para-methoxy anisole] | has no effect on oxidized dicarboxidine |  |  |
| Nc1ccc(-c2ccc(N)cc2)cc1 [benzidine] |  | function in the present invention |  |
| COc1ccccc1OC [ortho-methoxy anisole] | has no effect on oxidized dicarboxidine |  |  |

From patent US5445944A, “Methods for determining peroxidately active substances” (Syntex (U.S.A.) Inc., priority 1994, dated 1995)
